Reference: ChEMBL document CHEMBL1140596, “Pharmacophore identification of KSP inhibitors” (Bioorg Med Chem Lett, 2007)

Each compound was assayed against T1, Kinesin-like protein KIF11 (Homo sapiens, UniProt P52732) (assay: Inhibition of KSP).
T1 sequence (P52732 whole entry): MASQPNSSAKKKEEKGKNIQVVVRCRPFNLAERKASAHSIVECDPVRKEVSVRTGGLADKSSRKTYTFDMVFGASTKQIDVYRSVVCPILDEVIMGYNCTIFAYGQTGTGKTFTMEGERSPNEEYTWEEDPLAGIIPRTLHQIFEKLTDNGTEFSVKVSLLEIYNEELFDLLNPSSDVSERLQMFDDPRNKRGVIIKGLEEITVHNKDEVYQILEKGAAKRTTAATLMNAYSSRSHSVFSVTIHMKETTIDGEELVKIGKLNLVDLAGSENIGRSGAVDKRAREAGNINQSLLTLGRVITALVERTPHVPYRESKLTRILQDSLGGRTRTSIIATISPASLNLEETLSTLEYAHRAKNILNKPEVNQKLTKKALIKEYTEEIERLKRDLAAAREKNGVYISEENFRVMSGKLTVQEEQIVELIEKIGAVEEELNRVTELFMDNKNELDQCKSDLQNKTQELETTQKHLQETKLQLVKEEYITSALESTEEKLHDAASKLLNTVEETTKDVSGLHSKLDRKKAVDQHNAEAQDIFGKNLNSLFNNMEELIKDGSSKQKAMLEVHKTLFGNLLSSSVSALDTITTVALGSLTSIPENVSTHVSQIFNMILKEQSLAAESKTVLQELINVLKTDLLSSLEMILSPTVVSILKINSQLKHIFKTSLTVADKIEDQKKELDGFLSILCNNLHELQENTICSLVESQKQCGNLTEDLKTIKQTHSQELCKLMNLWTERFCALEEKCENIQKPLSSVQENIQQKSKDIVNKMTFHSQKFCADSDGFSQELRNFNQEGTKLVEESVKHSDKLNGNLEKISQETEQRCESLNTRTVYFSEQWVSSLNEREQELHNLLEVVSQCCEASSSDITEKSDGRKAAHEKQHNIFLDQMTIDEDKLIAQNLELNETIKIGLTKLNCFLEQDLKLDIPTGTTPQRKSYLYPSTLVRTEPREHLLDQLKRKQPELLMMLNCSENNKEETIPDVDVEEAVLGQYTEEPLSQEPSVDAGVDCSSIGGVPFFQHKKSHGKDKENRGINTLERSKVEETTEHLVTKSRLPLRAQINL
Compound Cc1ccc2c(c1C)CNCC2c1ccccc1 (centres undefined) has an IC50 of 8.23 µM.
For CC(=O)N1N=C(c2cc(F)ccc2F)C[C@H]1c1ccccc1, the IC50 was 0.026 µM.
For Oc1cccc2ccc(SSc3ccc4cccc(O)c4n3)nc12, the IC50 was 145 µM.
OC1CC2CCC(C1)N2CCCN1c2ccccc2Sc2ccc(Cl)cc21 (centres undefined) gave an IC50 of 5.6 µM.
In the case of CN1Cc2c(ccc3c2CCO3)[C@@H](c2ccccc2)C1, the IC50 is reported as 9.7 µM.
CCCCN1C(=O)[C@@H]2Cc3c([nH]c4ccccc34)[C@@H](c3cccc(O)c3)N2C1=O gave an IC50 of 0.8 µM.
CC[C@H](c1nc2cc(Cl)ccc2c(=O)n1Cc1ccccc1)N(CCCN(C)C)C(=O)c1ccc(Br)cc1 gave an IC50 of 0.012 µM.
With Cc1ccc(C(=O)N(CCCN)Cc2nc3cc(Cl)ccc3c(=O)n2Cc2ccccc2)cc1 the IC50 was 0.28 µM.
In the case of CC(C)(O)C1C[C@@H](O)[C@]2(C)[C@H](CC[C@@]3(C)[C@H]2CC[C@H]2Cc4c([nH]c5ccccc45)[C@@]23C)O1 (some centres undefined), the IC50 is reported as 15 µM.
Oc1cccc(C(c2cc(Cl)c(O)c(Cl)c2)C(c2cc(Cl)c(O)c(Cl)c2)c2cc(Cl)c(O)c(Cl)c2)c1Cl (centres undefined) gave an IC50 of 27 µM.
Work on NCCCCCN1C(=O)[C@@H]2Cc3c([nH]c4ccccc34)[C@@H](c3cccc(O)c3)N2C1=O yielded an IC50 of 0.09 µM.
In the case of O=C(O)c1cc2c(cc1S(=O)(=O)O)C1C(C3C2C2(Cl)C(Cl)=C(Cl)C3(Cl)C2(Cl)Cl)C2(Cl)C(Cl)=C(Cl)C1(Cl)C2(Cl)Cl (centres undefined), the IC50 is reported as 22 µM.
In the case of CCNCCN1CCN(CCCN2c3ccccc3Sc3ccc(C(F)(F)F)cc32)CC1, the IC50 is reported as 6.6 µM.
Cc1cc2c(C(C)C)c(O)c(O)c(C=O)c2c(O)c1-c1c(C)cc2c(C(C)C)c(O)c(O)c(C=O)c2c1O [GOSSYPOL] showed an IC50 of 25 µM.
